According to ChEMBL document CHEMBL3046299, “Neonicotinoid substituents forming a water bridge at the nicotinic acetylcholine receptor” (J Agric Food Chem, 2009):

What was measured:
[1] = Displacement of [3H]IMI from nicotinic acetylcholine receptor in Drosophila melanogaster brain
[2] = test system: Aphis gossypii; test: Insecticidal activity against adult Aphis gossypii (cotton aphid) in cucumber cotyledons assessed as mortality at 500 ppm treated for 5 secs before adult infestation measured after 72 hr; assay type: functional; conditions: in Cucumis sativus
[3] = test system: Drosophila melanogaster; test: Displacement of [3H]IMI from nicotinic acetylcholine receptor in Drosophila melanogaster brain at Ki concentration

Structure (SMILES)	Ki [1]	mortality at 500 ppm [2]	inhibition [3]
O=C(CCN1CCN/C1=N\[N+](=O)[O-])C(F)(F)F	≥ 100 µM	0%	43%
CC(=O)CCN1CCN(Cc2ccc(Cl)nc2)/C1=N/[N+](=O)[O-]	6.1 µM	–	–
O=[N+]([O-])/N=C1\NCCN1Cc1ccc(Cl)nc1 [IMIDACLOPRID]	0.003 µM	100%	–
O=[N+]([O-])/N=C1\NCCN1CC1CC=CC1	20.1 µM	20%	–
CC(=O)O/C(=C\CN1CCN/C1=N\[N+](=O)[O-])C(F)(F)F	16.3 µM	–	–
CO/N=C(\C)CCN1CCN/C1=N\[N+](=O)[O-]	61.2 µM	2%	–
CCCN1CCN(Cc2ccc(Cl)nc2)/C1=N/[N+](=O)[O-]	0.89 µM	–	–
CN/C(=N\[N+](=O)[O-])NCc1cnc(Cl)s1 [CLOTHIANIDINE]	0.004 µM	100%	–
O=[N+]([O-])/N=C1\NCCN1CCC(O)C(F)(F)F (stereo not given)	18.1 µM	–	–
O=[N+]([O-])/N=C1\NCCN1CCCCF	3.5 µM	27%	–
O=[N+]([O-])/N=C1\NCCN1CC1CCOC1 (stereo not given)	0.11 µM	100%	–
O=[N+]([O-])/N=C1\NCCN1C[C@H]1C[C@@H]2O[C@@H]2C1	14.8 µM	18%	–
O=[N+]([O-])/N=C1\NCCN1CCCCl	3.6 µM	55%	–
CCCN1CCN/C1=N\[N+](=O)[O-]	12.8 µM	31%	–
CN/C(=N/CC1CCOC1)N[N+](=O)[O-] (stereo not given) [DINOTEFURAN]	0.076 µM	100%	–
CC(=O)CCN1CCN/C1=N\[N+](=O)[O-]	1.2 µM	8%	–
O=[N+]([O-])/N=C1\NCCN1CCCF	1.7 µM	55%	–
O=[N+]([O-])/N=C1\N(CCCF)CCN1Cc1ccc(Cl)nc1	0.74 µM	–	–
O=[N+]([O-])/N=C1\NCCN1C[C@@H]1C[C@@H]2O[C@@H]2C1	8.1 µM	0%	–
O=[N+]([O-])/N=C1\NCCN1CCF	≥ 100 µM	47%	44%
O=[N+]([O-])/N=C1\N(CCC(O)C(F)(F)F)CCN1Cc1ccc(Cl)nc1 (stereo not given)	5 µM	–	–
C/C(CCN1CCN/C1=N\[N+](=O)[O-])=N\O	40.5 µM	10%	–
